Source: ChEMBL document CHEMBL1156404, “Haploscleridamine, a novel tryptamine-derived alkaloid from a sponge of the order haplosclerida: an inhibitor of cathepsin K” (J Nat Prod, 2002)
pIC50: −log10 of the molar value.

Target: T1, Cathepsin K (Homo sapiens, UniProt P43235)
T1 sequence (P43235 whole entry): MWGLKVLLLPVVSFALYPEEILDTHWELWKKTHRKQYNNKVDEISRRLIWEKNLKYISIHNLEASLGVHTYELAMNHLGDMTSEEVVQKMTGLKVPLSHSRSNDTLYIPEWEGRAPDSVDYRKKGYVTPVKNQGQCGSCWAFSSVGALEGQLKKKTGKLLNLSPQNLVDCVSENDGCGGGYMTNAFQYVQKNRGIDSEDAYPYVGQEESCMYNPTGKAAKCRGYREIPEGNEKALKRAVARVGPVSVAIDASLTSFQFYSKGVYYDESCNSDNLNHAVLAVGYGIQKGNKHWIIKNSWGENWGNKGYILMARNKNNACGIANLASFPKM
Assay: Inhibition of cathepsin K by fluorimetric assay

SMILES	pIC50
c1ccc2c3c([nH]c2c1)C(Cc1c[nH]cn1)NCC3 (configuration not stated) [HAPLOSCLERIDAMINE]	4.59
NCCc1c[nH]c2ccccc12 [TRYPTAMINE]	4.82
